{"source": "patent US10738071B2", "about": "“Polymorphic forms of sofosbuvir” (Mylan Laboratories Limited, priority 2016, dated 2020)", "test": "physical and chemical stability of sofosbuvir form-M3 on storage (water content, PXRD, HPLC purity)", "type": "physicochemical", "experimental": "The crystalline sofosbuvir form-M3 disclosed herein may be characterized by X-ray powder diffraction. Therefore, samples of crystalline sofosbuvir form-M3 were analyzed on a PANalytical, X'pert PRO powder diffractometer equipped with goniometer of θ/θ configuration and X'Celerator detector. The Cu-anode X-ray tube was operated at 40 kV and 30 mA. The experiments were conducted over the 2θ range of 2.0°-50.0°, 0.030° step size and 50 seconds step time.\nWater content was determined on an 841 Titrando Karl-Fischer titrator (Metrohm) by placing 40 mL dehydrated methanol in the titration vessel and titrating with a standardized reagent to reach the electrometric endpoint. A sample (e.g., 0.20 g sofosbuvir form-M3) was added, the mixture was stirred for 1 minute, then titrated to the endpoint with a Karl-Fischer reagent. For each determination, fresh methanol was used. The following calculations may be used to determine water content of each sample:\nThe physical and chemical stability of sofosbuvir form-M3 was determined by storing the samples at 25±2° C./60±5% relative humidity (RH) and at 40±2° C./75±5% RH for 6 months. The samples were tested to determine water content, detect degradation crystalline form by PXRD analysis, and measure purity by HPLC analysis. HPLC analysis was performed by the parameters listed below:\nChromatographic Conditions:\nInjection volume: 20.0 μL\nColumn oven temperature: 45° C.\nSample temperature: 10° C.\nAcquisition time: 25 minutes\nWater: Acetonitrile (80:20) % v/v\nAs an example, Table 1 below discloses data collected on sofosbuvir form-M3 under various storage conditions.", "key": {"[1]": {"details": "stored at 25 ± 2° C./60 ± 5% RH, 1 months"}, "[2]": {"details": "stored at 25 ± 2° C./60 ± 5% RH, 2 months"}, "[3]": {"details": "stored at 25 ± 2° C./60 ± 5% RH, 3 months"}, "[4]": {"details": "stored at 25 ± 2° C./60 ± 5% RH, 6 months"}, "[5]": {"details": "stored at 25 ± 2° C./60 ± 5% RH, Initial"}, "[6]": {"details": "stored at 40 ± 2° C./75 ± 5% RH, 1 months"}, "[7]": {"details": "stored at 40 ± 2° C./75 ± 5% RH, 2 months"}, "[8]": {"details": "stored at 40 ± 2° C./75 ± 5% RH, 3 months"}, "[9]": {"details": "stored at 40 ± 2° C./75 ± 5% RH, 6 months"}, "[10]": {"details": "stored at 40 ± 2° C./75 ± 5% RH, Initial"}, "[11]": {"details": "up to six months at 25±2° C./60±5% RH and at 40±2° C./75±5% RH"}}}
{"compound": "CC(C)OC(=O)[C@H](C)N[P@](=O)(OC[C@H]1O[C@@H](n2ccc(=O)[nH]c2=O)[C@](C)(F)[C@@H]1O)Oc1ccccc1", "note": "[sofosbuvir form-M3, (S)-isopropyl 2-((S)-(((2R,3R,4R,5R)-5-(2,4-dioxo3,4-dihydropyrimidin-1(2H)-yl)-4-fluoro-3-hydroxy-4-methyltetrahydrofuran-2yl)methoxy)-(phenoxy)phosphorylamino)propanoate]", "values": [{"measurement": "HPLC Purity", "setting": "[1]", "value": 99.90, "unit": "%"}, {"measurement": "PXRD", "setting": "[1]", "value": "form-M3"}, {"measurement": "Water content", "setting": "[1]", "value": 3.39, "unit": "%"}, {"measurement": "HPLC Purity", "setting": "[2]", "value": 99.90, "unit": "%"}, {"measurement": "PXRD", "setting": "[2]", "value": "form-M3"}, {"measurement": "Water content", "setting": "[2]", "value": 3.45, "unit": "%"}, {"measurement": "HPLC Purity", "setting": "[3]", "value": 99.89, "unit": "%"}, {"measurement": "PXRD", "setting": "[3]", "value": "form-M3"}, {"measurement": "Water content", "setting": "[3]", "value": 3.35, "unit": "%"}, {"measurement": "HPLC Purity", "setting": "[4]", "value": 99.92, "unit": "%"}, {"measurement": "PXRD", "setting": "[4]", "value": "form-M3"}, {"measurement": "Water content", "setting": "[4]", "value": 3.34, "unit": "%"}, {"measurement": "HPLC Purity", "setting": "[5]", "value": 99.92, "unit": "%"}, {"measurement": "PXRD", "setting": "[5]", "value": "form-M3"}, {"measurement": "Water content", "setting": "[5]", "value": 3.59, "unit": "%"}, {"measurement": "HPLC Purity", "setting": "[6]", "value": 99.90, "unit": "%"}, {"measurement": "PXRD", "setting": "[6]", "value": "form-M3"}, {"measurement": "Water content", "setting": "[6]", "value": 3.55, "unit": "%"}, {"measurement": "HPLC Purity", "setting": "[7]", "value": 99.90, "unit": "%"}, {"measurement": "PXRD", "setting": "[7]", "value": "form-M3"}, {"measurement": "Water content", "setting": "[7]", "value": 3.33, "unit": "%"}, {"measurement": "HPLC Purity", "setting": "[8]", "value": 99.89, "unit": "%"}, {"measurement": "PXRD", "setting": "[8]", "value": "form-M3"}, {"measurement": "Water content", "setting": "[8]", "value": 3.19, "unit": "%"}, {"measurement": "HPLC Purity", "setting": "[9]", "value": 99.91, "unit": "%"}, {"measurement": "PXRD", "setting": "[9]", "value": "form-M3"}, {"measurement": "Water content", "setting": "[9]", "value": 3.00, "unit": "%"}, {"measurement": "HPLC Purity", "setting": "[10]", "value": 99.92, "unit": "%"}, {"measurement": "PXRD", "setting": "[10]", "value": "form-M3"}, {"measurement": "Water content", "setting": "[10]", "value": 3.59, "unit": "%"}, {"measurement": "change in PXRD pattern on storage", "setting": "[11]", "value": "no significant change in PXRD pattern"}, {"measurement": "change in moisture content on storage", "setting": "[11]", "value": "no significant change in moisture content"}, {"measurement": "change in purity on storage", "setting": "[11]", "value": "no significant change in purity"}]}
